Results published in patent publication US11912663B2, “Multi-targeted tyrosine kinase inhibitors and their pharmaceutical uses” (Shanghai AB PharmaTech Ltd., priority 2021, dated 2024).

Experiments:
[1] = MTD toxicity test in rats; assay type: in vivo; settings: rat, in vivo
[2] = test system: kidney cancer cell line (Caki-1); experiment: tumor cell proliferation inhibition (CTG), kidney cancer cell line; assay type: cell-based; settings: Homo sapiens, 72 hours, read-out: Caki-1 (renal cancer) IC50
[3] = test system: pancreatic cancer cell line (BXPC3); experiment: tumor cell proliferation inhibition (CTG), pancreatic cancer cell line; assay type: cell-based; settings: Homo sapiens, BXPC-3, 72 hours
[4] = test system: lung cancer cell line (A549); experiment: tumor cell proliferation inhibition (CTG), lung cancer cell line; assay type: cell-based; settings: Homo sapiens, 72 hours
[5] = molecular target: hERG potassium channels (Homo sapiens (Human), UniProt Q12809); experiment: in vitro inhibitory effect of hERG, whole-cell patch clamp; assay type: cell-based; settings: whole-cell recording, room temperature
Sequence of hERG potassium channels (Q12809 whole entry): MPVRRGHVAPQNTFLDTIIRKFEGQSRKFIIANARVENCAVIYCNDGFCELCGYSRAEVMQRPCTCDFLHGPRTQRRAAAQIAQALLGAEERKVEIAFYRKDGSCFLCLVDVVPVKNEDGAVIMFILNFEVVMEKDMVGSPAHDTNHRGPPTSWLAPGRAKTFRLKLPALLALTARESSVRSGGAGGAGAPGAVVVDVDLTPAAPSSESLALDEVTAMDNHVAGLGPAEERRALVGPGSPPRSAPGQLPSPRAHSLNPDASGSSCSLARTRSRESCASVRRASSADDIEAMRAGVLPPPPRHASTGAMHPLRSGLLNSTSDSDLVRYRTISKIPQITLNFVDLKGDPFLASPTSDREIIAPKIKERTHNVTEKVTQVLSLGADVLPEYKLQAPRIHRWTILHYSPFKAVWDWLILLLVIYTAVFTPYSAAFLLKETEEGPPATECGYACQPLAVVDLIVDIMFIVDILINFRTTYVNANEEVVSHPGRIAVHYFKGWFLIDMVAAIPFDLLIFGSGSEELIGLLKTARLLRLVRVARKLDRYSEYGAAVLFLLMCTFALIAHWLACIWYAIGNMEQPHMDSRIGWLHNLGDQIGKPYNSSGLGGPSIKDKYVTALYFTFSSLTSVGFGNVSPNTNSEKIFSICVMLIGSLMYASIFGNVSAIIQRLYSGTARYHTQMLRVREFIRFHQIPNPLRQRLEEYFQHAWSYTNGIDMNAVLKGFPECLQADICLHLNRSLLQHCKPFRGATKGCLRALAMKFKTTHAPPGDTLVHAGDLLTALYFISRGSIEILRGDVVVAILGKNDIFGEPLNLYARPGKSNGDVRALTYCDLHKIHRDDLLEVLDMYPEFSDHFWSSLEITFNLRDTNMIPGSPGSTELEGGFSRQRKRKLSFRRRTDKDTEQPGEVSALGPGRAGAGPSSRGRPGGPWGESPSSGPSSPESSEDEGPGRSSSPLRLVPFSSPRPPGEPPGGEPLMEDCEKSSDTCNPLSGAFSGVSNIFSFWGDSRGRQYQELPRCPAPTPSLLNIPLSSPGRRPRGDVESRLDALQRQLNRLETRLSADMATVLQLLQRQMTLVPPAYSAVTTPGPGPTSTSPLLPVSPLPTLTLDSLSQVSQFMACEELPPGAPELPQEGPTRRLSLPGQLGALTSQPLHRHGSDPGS

[6] = test system: cervical cancer cell lines (Hela); experiment: tumor cell proliferation inhibition (CTG), cervical cancer cell line; assay type: cell-based; settings: Homo sapiens, 72 hours
[7] = test system: leukemia cell line (K562); experiment: tumor cell proliferation inhibition (CTG), leukemia cell line; assay type: cell-based; settings: Homo sapiens, 72 hours
[8] = test system: gastric cancer cell line (SNU16); experiment: tumor cell proliferation inhibition (CTG), gastric cancer cell line; assay type: cell-based; settings: Homo sapiens, SNU-16, 72 hours, read-out: SUN16 IC50
[9] = test system: hepatocellular carcinoma cell line (Hep3B 2.1-7); experiment: tumor cell proliferation inhibition (CTG), hepatocellular carcinoma cell line; assay type: cell-based; settings: Homo sapiens, 72 hours
[10] = test system: prostatic cancer (PC-3); experiment: tumor cell proliferation inhibition (CTG), PC-3; assay type: cell-based; settings: 72 hours
[11] = molecular target: FGFR2 (Homo sapiens (Human), UniProt P21802); experiment: kinase inhibition, Mobility-Shift Assay; assay type: biochemical; settings: 1.9 μM ATP
[12] = molecular target: VEGFR1 (FLT1) (Homo sapiens (Human), UniProt P17948); experiment: kinase inhibition, Mobility-Shift Assay; assay type: biochemical; settings: 278 μM ATP
Sequence of VEGFR1 (FLT1) (P17948 27-1338): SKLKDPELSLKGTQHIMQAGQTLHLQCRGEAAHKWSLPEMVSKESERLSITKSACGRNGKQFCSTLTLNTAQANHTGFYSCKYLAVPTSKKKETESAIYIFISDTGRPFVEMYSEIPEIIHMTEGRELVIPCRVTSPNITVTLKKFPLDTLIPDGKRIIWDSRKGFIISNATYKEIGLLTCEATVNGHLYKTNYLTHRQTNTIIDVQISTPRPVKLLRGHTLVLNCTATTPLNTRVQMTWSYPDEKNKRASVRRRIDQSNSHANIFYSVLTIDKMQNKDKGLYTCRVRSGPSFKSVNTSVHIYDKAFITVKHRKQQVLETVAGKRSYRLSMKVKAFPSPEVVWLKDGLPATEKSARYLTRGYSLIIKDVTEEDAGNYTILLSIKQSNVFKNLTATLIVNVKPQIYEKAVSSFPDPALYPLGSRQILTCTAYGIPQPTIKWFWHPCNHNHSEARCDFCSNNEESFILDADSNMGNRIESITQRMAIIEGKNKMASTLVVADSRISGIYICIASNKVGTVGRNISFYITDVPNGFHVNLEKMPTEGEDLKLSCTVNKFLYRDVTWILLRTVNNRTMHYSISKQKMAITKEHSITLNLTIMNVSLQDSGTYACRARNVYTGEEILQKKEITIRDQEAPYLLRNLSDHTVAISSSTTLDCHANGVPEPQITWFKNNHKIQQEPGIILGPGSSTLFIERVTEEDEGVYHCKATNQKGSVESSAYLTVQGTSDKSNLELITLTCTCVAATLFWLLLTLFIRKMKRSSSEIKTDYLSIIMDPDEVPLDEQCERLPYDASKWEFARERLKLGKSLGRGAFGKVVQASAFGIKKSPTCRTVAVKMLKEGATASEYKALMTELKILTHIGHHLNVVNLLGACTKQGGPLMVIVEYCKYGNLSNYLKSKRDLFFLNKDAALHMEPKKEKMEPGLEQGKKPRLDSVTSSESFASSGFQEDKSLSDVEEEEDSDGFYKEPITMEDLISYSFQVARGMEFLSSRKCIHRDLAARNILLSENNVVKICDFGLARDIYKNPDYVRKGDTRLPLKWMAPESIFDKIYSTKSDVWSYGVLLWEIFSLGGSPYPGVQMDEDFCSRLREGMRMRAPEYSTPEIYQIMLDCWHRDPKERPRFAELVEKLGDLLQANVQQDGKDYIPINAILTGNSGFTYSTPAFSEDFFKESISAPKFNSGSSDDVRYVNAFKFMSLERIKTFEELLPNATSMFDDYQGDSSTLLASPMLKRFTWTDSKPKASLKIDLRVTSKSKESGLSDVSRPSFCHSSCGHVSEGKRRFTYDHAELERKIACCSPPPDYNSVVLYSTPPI

[13] = molecular target: VEGFR3 (FLT4) (Homo sapiens (Human), UniProt P35916); experiment: kinase inhibition, Mobility-Shift Assay; assay type: biochemical; settings: 84 μM ATP
Sequence of VEGFR3 (FLT4) (P35916 25-1363): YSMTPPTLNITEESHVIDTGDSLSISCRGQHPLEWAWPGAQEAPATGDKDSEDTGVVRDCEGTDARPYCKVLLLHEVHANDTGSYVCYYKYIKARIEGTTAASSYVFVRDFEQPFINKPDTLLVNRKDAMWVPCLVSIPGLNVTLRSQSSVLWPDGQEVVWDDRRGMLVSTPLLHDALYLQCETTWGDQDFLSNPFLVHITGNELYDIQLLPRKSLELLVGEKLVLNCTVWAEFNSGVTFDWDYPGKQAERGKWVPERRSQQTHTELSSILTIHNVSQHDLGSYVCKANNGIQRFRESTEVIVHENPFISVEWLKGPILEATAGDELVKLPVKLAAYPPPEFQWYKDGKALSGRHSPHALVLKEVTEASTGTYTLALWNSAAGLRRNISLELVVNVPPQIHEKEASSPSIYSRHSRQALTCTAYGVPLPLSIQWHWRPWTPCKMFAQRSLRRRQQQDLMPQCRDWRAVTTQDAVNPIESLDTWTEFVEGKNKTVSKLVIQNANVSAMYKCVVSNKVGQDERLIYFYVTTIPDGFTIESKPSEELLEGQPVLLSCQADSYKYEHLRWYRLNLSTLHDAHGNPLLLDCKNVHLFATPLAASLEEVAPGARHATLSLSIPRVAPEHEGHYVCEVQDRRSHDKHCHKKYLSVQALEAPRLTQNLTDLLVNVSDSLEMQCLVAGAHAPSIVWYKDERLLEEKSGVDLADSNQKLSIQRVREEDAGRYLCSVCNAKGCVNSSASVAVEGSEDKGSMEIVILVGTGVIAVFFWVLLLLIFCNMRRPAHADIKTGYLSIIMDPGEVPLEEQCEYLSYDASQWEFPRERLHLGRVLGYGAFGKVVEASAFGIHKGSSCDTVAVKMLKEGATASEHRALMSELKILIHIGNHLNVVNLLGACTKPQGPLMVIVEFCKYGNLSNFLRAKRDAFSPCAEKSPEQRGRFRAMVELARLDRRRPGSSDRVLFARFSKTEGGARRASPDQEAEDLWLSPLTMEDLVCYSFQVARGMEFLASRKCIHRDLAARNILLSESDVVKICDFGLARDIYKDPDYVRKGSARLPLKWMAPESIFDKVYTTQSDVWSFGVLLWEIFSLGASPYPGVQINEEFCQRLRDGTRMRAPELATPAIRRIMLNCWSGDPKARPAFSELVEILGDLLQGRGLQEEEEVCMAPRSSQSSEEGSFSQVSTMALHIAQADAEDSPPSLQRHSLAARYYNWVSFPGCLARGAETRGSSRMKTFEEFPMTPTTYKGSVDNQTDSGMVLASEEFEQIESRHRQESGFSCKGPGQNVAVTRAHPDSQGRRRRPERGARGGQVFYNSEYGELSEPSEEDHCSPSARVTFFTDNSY

[14] = molecular target: RET (Homo sapiens (Human), UniProt P07949); experiment: kinase inhibition, Mobility-Shift Assay; assay type: biochemical; settings: 23 μM ATP
[15] = molecular target: VEGFR2 (KDR) (Homo sapiens (Human), UniProt P35968); experiment: kinase inhibition, Mobility-Shift Assay; assay type: biochemical; settings: VEGFR2, 92 μM ATP
Sequence of VEGFR2 (KDR) (P35968 20-1356): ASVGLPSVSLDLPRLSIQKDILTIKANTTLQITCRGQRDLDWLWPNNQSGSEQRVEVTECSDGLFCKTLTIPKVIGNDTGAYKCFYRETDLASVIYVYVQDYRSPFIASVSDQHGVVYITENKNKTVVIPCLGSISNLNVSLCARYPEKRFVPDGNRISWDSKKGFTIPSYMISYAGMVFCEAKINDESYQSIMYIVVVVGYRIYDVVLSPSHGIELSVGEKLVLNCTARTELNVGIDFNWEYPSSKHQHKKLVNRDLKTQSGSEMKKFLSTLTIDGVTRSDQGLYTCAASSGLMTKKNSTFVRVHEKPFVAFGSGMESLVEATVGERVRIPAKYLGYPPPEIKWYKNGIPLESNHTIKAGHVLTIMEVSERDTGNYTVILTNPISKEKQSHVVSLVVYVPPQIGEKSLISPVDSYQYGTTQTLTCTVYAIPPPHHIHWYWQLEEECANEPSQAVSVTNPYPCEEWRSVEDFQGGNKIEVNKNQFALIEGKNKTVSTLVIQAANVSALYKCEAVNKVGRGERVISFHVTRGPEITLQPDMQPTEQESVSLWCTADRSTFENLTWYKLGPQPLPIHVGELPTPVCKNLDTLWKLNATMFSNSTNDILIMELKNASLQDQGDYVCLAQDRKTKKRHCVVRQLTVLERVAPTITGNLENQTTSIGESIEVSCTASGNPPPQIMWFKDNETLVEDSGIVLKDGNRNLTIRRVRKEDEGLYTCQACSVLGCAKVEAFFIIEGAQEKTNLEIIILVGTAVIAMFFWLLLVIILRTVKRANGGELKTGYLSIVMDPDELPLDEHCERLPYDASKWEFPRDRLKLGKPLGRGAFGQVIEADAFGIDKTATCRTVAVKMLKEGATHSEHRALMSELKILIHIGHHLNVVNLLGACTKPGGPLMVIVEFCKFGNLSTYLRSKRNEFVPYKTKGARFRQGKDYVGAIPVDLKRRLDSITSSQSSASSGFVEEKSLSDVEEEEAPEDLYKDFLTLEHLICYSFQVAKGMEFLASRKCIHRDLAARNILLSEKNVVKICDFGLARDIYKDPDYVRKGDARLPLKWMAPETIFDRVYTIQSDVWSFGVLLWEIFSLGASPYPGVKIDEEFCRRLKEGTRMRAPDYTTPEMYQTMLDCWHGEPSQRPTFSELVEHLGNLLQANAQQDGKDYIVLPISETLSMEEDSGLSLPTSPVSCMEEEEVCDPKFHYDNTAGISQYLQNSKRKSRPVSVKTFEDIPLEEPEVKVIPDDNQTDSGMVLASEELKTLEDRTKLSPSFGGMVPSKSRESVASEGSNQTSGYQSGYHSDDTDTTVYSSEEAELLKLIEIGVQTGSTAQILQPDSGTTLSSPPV

Structure (SMILES)	IC50 [2] [µM]	IC50 [3] [µM]	IC50 [4] [µM]	other results
CNC(=O)c1cc2c(Oc3c(F)cc(NC(=O)NC4CC4)c(Cl)c3F)ccnc2cc1OC [IIIb-01]	> 5	> 10	> 5	MTD at 14 days ([1]; 150 mg/kg, in rats, read-out: MTD toxicity dose): > 150 mg/kg; MTD ([1]; toxicity study for MTD, species not stated): 300 mg/kg; IC50 [5]: > 30 µM
CNC(=O)c1cc2c(Oc3c(F)cc(NC(=O)NC4CC4)c(F)c3F)ccnc2cc1OC [IIIb-02]	> 5	> 10	> 5	–
COc1cc2nccc(Oc3c(F)cc(NC(=O)NC4CC4)c(Cl)c3F)c2cc1C(=O)N(C)C [IIIb-03]	> 5	> 10	> 5	–
COc1cc2nccc(Oc3c(F)cc(NC(=O)NC4CC4)c(Cl)c3F)c2cc1C(=O)NC(C)C [IIIb-04]	> 5	> 10	> 5	–
COCCNC(=O)c1cc2c(Oc3c(F)cc(NC(=O)NC4CC4)c(Cl)c3F)ccnc2cc1OC [IIIb-05]	> 5	> 10	> 5	–
COc1cc2nccc(Oc3c(F)cc(NC(=O)NC4CC4)c(Cl)c3F)c2cc1C(=O)NCCF [IIIb-06]	2.5 to 5	> 10	2.5 to 5	IC50 [6]: < 5 µM; IC50 [7]: 5 to 10 µM; IC50 [8]: > 10 µM; IC50 [9]: 2.5 to 5 µM; IC50 [10]: > 10 µM; IC50 [5]: 18.7 µM
COc1cc2nccc(Oc3c(F)cc(NC(=O)NC4CC4)c(F)c3F)c2cc1C(=O)NCC(F)F [IIIb-07]	> 5	> 10	> 5	–
COc1cc2nccc(Oc3c(F)cc(NC(=O)NC4CC4)c(Cl)c3F)c2cc1C(=O)NCCN(C)C [IIIb-10]	> 5	> 10	> 5	–
COc1cc2nccc(Oc3c(F)cc(NC(=O)NC4CC4)c(F)c3F)c2cc1C(=O)NC1CC1 [IIIb-11]	< 2.5	< 5	< 2.5	–
COc1cc2nccc(Oc3c(F)cc(NC(=O)NC4CC4)c(Cl)c3F)c2cc1C(=O)NC1CC1 [IIIb-12]	> 5	> 10	> 5	–
COc1cc2nccc(Oc3c(F)cc(NC(=O)NC4CC4)c(Cl)c3F)c2cc1C(=O)N(C1CC1)C1CC1 [IIIb-13]	> 5	> 10	> 5	–
COc1cc2nccc(Oc3c(F)cc(NC(=O)NC4CC4)c(Cl)c3F)c2cc1C(=O)N1CCC1 [IIIb-14]	> 5	> 10	> 5	–
COc1cc2nccc(Oc3c(F)cc(NC(=O)NC4CC4)c(F)c3F)c2cc1C(=O)NCCO [IIIb-15]	> 5	> 10	> 5	–
COc1cc2nccc(Oc3c(F)cc(NC(=O)NC4CC4)c(Cl)c3F)c2cc1C(=O)N[C@H](C)CO [IIIb-17]	> 5	> 10	> 5	–
COc1cc2nccc(Oc3c(F)cc(NC(=O)NC4CC4)c(Cl)c3F)c2cc1C(=O)N[C@@H](C)CO [IIIb-18]	> 5	> 10	> 5	–
COc1cc2nccc(Oc3c(F)cc(NC(=O)NC4CC4)c(Cl)c3F)c2cc1C(=O)NC(C)(C)CO [IIIb-19]	> 5	> 10	> 5	–
COc1cc2nccc(Oc3c(F)cc(NC(=O)NC4CC4)c(Cl)c3F)c2cc1C(=O)NC(CO)CO [IIIb-20]	> 5	> 10	> 5	–
COc1cc2nccc(Oc3c(F)cc(NC(=O)NC4CC4)c(Cl)c3F)c2cc1C(=O)NC[C@@H](O)CO [IIIb-21]	< 2.5	5 to 10	< 2.5	IC50 [11]: 0.05 to 0.1 µM; IC50 [6]: > 10 µM; IC50 [12]: < 0.005 µM; IC50 [13]: < 0.005 µM; IC50 [7]: 5 to 10 µM; IC50 [8]: > 10 µM; IC50 [9]: 2.5 to 5 µM; IC50 [10]: > 10 µM; IC50 [14]: 0.005 to 0.01 µM; IC50 [15]: < 0.005 µM
COc1cc2nccc(Oc3c(F)cc(NC(=O)NC4CC4)c(Cl)c3F)c2cc1C(=O)NC[C@H](O)CO [IIIb-22]	2.5 to 5	> 10	2.5 to 5	–
COc1cc2nccc(Oc3c(F)cc(NC(=O)NC4CC4)c(Cl)c3F)c2cc1C(=O)NC1(CO)CC1 [IIIb-23]	> 5	> 10	> 5	–
